ChEMBL document CHEMBL1138010, “Discovery of highly potent, selective, orally bioavailable, metabotropic glutamate subtype 5 (mGlu5) receptor antagonists devoid of cytochrome P450 1A2 inhibitory activity” (Bioorg Med Chem Lett, 2004)

Key:
[1] = molecular target: Metabotropic glutamate receptor 5 (Rattus norvegicus) (UniProt P31424); assay: Antagonistic activity against Metabotropic glutamate receptor 5 in [Ca2+] flux assay using glutamate (10 uM) as agonist; type: functional
[2] = molecular target: Metabotropic glutamate receptor 5 (Rattus norvegicus, UniProt P31424); assay: Binding affinity towards Metabotropic glutamate receptor was determined by displacing [3H]3-methoxy-5-(pyridin-2-ylethynyl)pyridine from rat cortical membranes
Metabotropic glutamate receptor 5, sequence (P31424 whole entry): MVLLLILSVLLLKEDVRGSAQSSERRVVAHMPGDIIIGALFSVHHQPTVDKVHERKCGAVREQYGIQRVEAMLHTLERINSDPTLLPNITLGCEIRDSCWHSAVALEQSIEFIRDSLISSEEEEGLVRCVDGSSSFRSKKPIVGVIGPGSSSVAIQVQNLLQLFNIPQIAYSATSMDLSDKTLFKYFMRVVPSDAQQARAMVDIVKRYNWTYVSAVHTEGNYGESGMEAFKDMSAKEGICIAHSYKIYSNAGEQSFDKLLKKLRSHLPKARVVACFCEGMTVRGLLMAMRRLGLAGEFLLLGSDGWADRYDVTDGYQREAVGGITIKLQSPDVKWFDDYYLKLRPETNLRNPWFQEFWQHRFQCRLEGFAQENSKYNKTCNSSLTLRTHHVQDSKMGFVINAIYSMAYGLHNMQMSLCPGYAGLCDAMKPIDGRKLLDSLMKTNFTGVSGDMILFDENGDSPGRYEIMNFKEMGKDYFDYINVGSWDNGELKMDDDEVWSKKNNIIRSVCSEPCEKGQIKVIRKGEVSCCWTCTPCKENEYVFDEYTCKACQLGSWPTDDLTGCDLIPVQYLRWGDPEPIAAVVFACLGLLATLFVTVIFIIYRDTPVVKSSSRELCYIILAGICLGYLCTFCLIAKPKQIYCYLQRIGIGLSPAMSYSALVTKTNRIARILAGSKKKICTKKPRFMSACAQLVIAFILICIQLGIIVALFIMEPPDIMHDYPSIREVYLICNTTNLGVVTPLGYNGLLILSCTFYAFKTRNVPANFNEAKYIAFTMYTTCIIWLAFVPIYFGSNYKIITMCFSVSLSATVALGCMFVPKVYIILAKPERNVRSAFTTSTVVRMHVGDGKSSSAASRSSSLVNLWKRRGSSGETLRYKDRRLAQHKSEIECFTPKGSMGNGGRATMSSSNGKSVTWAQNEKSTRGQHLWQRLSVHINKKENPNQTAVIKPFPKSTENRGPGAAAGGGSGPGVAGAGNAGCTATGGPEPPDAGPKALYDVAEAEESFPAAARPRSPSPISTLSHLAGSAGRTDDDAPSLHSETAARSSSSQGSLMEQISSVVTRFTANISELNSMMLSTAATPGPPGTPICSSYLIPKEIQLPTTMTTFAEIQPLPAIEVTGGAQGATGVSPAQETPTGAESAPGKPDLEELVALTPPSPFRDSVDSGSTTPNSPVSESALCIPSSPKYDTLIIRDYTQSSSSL

Cytochrome P450 1A2 = molecular target: T1, Cytochrome P450 1A2 (Homo sapiens, UniProt P05177); assay: Antagonistic activity against recombinant cytochrome P450 1A2; type: ADME; details: recombinant enzyme
T1 sequence (P05177 whole entry): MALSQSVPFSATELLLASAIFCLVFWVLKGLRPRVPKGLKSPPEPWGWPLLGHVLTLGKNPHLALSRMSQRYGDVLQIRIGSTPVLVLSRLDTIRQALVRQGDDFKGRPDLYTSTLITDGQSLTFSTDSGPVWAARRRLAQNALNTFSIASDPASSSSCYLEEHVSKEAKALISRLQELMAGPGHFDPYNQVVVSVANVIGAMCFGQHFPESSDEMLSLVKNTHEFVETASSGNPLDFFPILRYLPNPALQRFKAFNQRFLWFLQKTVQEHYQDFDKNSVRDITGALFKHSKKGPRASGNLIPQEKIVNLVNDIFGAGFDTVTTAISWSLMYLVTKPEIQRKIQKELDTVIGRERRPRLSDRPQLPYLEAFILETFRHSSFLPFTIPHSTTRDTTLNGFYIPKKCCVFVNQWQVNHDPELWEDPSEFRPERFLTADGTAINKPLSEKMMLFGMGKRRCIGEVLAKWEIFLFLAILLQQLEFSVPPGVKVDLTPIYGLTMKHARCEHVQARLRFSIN

[3] = molecular target: Metabotropic glutamate receptor 5 (Rattus norvegicus) (UniProt P31424); assay: Percent occupancy of the Metabotropic glutamate receptor 5 by the [3H]3-methoxy-5-(pyridin-2-ylethynyl)pyridine ligand 1 hr post-administration of 10 mg/kg compound ip; type: organism-based; parameters: dose 10 mg/kg
Cytochrome P450 3A4 = Cytochrome P450 3A4 (Homo sapiens, UniProt P08684); assay: Antagonistic activity against recombinant cytochrome P450 3A4; type: ADME; details: recombinant enzyme
Cytochrome P450 3A4, sequence (P08684 whole entry): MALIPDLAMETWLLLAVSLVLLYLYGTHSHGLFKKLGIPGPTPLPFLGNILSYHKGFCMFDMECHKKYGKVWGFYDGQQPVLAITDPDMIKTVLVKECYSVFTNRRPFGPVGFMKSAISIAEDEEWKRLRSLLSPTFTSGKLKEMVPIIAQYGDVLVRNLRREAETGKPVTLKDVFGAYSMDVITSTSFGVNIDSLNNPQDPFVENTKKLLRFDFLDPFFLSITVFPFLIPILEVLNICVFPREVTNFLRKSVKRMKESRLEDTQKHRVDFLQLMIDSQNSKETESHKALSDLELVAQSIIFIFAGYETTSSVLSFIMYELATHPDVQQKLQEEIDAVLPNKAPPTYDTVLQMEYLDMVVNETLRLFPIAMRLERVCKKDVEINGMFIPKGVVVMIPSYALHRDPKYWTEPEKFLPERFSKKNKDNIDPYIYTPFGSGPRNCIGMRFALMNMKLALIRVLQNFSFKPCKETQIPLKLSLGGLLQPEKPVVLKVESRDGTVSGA

[4] = Plasma clearance after dosing 2 mg/kg iv and 10 mg/kg po; type: ADME, organism-based; details: rat
Cytochrome P450 2C19 = Cytochrome P450 2C19 (Homo sapiens, UniProt P33261); assay: Antagonistic activity against recombinant cytochrome P450 2C19; type: ADME; details: recombinant enzyme
Cytochrome P450 2C19, sequence (P33261 whole entry): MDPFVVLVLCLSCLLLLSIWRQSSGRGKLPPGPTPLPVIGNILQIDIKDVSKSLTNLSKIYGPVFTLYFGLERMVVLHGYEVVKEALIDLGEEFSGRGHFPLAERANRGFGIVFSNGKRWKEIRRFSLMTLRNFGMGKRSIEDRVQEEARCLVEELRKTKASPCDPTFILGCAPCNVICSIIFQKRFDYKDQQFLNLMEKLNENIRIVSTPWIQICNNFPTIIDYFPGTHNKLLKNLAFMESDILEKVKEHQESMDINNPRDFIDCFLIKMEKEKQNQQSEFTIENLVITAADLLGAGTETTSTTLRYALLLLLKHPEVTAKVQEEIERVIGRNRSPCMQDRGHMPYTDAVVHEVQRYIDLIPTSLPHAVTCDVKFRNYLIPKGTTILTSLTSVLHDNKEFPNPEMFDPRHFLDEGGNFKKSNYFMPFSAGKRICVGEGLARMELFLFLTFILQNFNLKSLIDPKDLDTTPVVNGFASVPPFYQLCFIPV

Rattus norvegicus = assay: Concentration in rat brain measured at 1 hr post-administration of 10 mg/kg ip; type: functional, organism-based; parameters: dose 10 mg/kg
[5] = Volume of distribution after dosing 2 mg/kg iv and 10 mg/kg po; type: ADME, organism-based; details: rat, in vivo
[6] = Oral bioavailability after dosing 2 mg/kg iv and 10 mg/kg po; type: ADME, organism-based; details: rat, in vivo
Cytochrome P450 2D6 = Cytochrome P450 2D6 (Homo sapiens, UniProt P10635); assay: Antagonistic activity against recombinant cytochrome P450 2D6; type: ADME; details: recombinant enzyme
Cytochrome P450 2D6, sequence (P10635 whole entry): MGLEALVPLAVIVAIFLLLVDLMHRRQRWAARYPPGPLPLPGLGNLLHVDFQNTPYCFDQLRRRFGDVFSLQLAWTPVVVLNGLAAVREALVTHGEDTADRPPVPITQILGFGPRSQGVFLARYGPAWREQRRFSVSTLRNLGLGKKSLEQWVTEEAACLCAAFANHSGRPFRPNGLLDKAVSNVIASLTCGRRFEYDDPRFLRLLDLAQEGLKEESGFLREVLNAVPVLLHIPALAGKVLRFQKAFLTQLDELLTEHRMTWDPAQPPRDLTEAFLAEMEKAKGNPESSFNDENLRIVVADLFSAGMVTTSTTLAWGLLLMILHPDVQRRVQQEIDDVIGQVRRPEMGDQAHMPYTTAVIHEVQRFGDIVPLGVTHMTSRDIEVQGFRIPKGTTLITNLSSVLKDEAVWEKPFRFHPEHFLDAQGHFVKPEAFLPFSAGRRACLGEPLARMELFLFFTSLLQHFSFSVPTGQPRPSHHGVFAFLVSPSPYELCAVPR

[7] = Area under the curve after dosing 2 mg/kg iv and 10 mg/kg po; type: ADME, organism-based; details: rat, in vivo
Cytochrome P450 2C9 = Cytochrome P450 2C9 (Homo sapiens, UniProt P11712); assay: Antagonistic activity against recombinant cytochrome P450 2C9; type: ADME; details: recombinant enzyme
Cytochrome P450 2C9, sequence (P11712 whole entry): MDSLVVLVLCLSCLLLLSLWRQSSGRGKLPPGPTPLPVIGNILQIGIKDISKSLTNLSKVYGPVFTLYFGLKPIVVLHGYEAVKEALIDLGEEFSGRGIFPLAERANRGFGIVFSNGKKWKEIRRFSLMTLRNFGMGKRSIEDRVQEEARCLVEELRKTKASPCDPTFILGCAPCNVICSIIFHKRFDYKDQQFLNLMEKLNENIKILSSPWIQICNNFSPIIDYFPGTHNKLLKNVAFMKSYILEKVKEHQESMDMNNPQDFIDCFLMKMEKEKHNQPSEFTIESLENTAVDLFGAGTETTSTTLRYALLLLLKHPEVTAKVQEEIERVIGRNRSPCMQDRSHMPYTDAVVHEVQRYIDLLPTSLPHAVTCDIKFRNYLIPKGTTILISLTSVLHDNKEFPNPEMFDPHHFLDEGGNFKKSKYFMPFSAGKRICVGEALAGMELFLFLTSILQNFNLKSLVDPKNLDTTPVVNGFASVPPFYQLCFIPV

[8] = Half life was determined; type: ADME; details: rat
[9] = Volume of distribution was determined; type: ADME, organism-based; details: rat, in vivo
[10] = Plasma clearance was determined; type: ADME, organism-based; details: rat
[11] = Oral bioavailability; type: ADME, organism-based; details: rat, in vivo
[12] = Area under the curve was determined; type: ADME; details: rat

Metabotropic glutamate receptor 5 (Rattus norvegicus), sequence (P31424 21-1203 limits assumed): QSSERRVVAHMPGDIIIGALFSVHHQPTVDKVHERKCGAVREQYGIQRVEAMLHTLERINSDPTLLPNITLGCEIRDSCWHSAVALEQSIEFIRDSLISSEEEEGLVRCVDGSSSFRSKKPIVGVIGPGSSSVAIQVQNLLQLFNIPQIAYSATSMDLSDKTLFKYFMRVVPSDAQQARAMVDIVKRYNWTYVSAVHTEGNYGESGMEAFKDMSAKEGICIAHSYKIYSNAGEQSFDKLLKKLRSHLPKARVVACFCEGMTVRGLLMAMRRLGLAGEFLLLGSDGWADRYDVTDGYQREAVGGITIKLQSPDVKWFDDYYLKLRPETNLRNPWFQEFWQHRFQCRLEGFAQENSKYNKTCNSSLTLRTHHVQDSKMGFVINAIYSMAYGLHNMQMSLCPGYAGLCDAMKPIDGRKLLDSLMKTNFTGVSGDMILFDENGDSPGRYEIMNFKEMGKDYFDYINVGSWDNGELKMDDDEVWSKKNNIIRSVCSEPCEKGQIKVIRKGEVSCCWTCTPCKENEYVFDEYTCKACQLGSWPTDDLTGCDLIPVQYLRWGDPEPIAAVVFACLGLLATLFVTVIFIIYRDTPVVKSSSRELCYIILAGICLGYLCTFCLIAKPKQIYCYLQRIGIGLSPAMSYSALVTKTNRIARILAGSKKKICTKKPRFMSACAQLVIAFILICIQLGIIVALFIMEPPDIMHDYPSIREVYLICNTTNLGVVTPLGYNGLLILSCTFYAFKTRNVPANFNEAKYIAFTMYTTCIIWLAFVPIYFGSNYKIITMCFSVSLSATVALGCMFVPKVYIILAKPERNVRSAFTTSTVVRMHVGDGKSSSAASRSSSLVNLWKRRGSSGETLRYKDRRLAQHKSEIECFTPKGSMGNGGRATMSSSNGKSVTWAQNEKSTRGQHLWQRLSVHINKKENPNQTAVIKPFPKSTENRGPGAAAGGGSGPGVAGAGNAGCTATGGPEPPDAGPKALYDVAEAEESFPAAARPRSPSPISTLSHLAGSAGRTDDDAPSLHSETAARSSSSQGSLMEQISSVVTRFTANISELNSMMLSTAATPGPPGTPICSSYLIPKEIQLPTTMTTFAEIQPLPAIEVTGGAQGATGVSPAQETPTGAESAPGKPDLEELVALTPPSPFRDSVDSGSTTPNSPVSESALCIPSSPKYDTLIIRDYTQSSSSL

Structure (SMILES) | Activity [1] | Ki [2] | Activity (Cytochrome P450 1A2) | Occupancy [3] | other results
N#Cc1cccc(-n2nnc(-c3cscn3)n2)c1 | 148 nM | 157 nM | 1.7 µM | – | –
N#Cc1cccc(-n2nnc(-c3ccccn3)n2)c1 | 73 nM | 102 nM | 3.8 µM | 90% | –
N#Cc1cc(F)cc(-n2nnc(-c3ccccn3)n2)c1 | 3.9 nM | – | 2.3 µM | – | Activity (Cytochrome P450 3A4): > 14 µM; clearance [4]: 15 mL/min/kg; Activity (Cytochrome P450 2C19): > 14 µM; Concentration (Rattus norvegicus): 9.7 µM; Vd [5]: 1.1 L/kg; bioavailability [6]: 24%; Activity (Cytochrome P450 2D6): > 14 µM; AUC [7]: 9.6 µM·h; Activity (Cytochrome P450 2C9): > 14 µM
N#Cc1cccc(-n2nnc(-c3cc[nH]n3)n2)c1 | > 2000 nM | > 2000 nM | – | – | –
N#Cc1cccc(-n2nnc(-c3ncc[nH]3)n2)c1 | 77 nM | 34 nM | > 14 µM | – | –
N#Cc1cccc(-n2nnc(-c3nccs3)n2)c1 | 142 nM | 183 nM | 1 µM | – | –
Fc1cc(Oc2cccnc2)cc(-n2nnc(-c3ccccn3)n2)c1 | 6.7 nM | – | 0.7 µM | 90% | –
N#Cc1cccc(-n2nnc(-c3c[nH]cn3)n2)c1 | > 2000 nM | > 2000 nM | – | – | –

Continued, in another order:

Activity [1] | Ki [2] | Activity (Cytochrome P450 1A2) | Occupancy [3] | Structure (SMILES) | other results
9.7 nM | 3.2 nM | 5.1 µM | 69% | Fc1cc(Oc2cccnc2)cc(-n2nnc(-c3ncc[nH]3)n2)c1 | –
47 nM | 9.3 nM | > 14 µM | 95% | N#Cc1cc(F)cc(-n2nnc(-c3ncc[nH]3)n2)c1 | –
20 nM | 3.5 nM | 3.5 µM | 29% | Cc1ccncc1-c1cc(F)cc(-n2nnc(-c3ncc[nH]3)n2)c1 | –
77 nM | 19 nM | > 14 µM | 97% | Cc1c[nH]c(-c2nnn(-c3cc(F)cc(C#N)c3)n2)n1 | Activity (Cytochrome P450 3A4): > 14 µM; Activity (Cytochrome P450 2C19): > 14 µM; Concentration (Rattus norvegicus): 8.1 µM; half-life [8]: 18 min; Vd [9]: 0.6 L/kg; Activity (Cytochrome P450 2D6): > 14 µM; clearance [10]: 40 mL/min/kg; bioavailability [11]: 22%; AUC [12]: 3.4 µM·h; Activity (Cytochrome P450 2C9): > 14 µM
5.2 nM | 1.8 nM | 0.5 µM | 95% | Cc1ccncc1-c1cc(F)cc(-n2nnc(-c3ccccn3)n2)c1 | –
